By IC50 is commonly meant the concentration that gives 50% inhibition. As usually defined, the Ki is the equilibrium dissociation constant of an inhibitor or competing ligand from its target.

Like-named read-outs stand apart in the source and are kept apart here.

This note sets out measurements from PMC9602571, “Discovery of a Dual SENP1 and SENP2 Inhibitor” (International Journal of Molecular Sciences, 2022).

Holding throughout (format): biochemical
Experiment [1] deals with T1, SENP1 (Homo sapiens, UniProt Q9P0U3).
T1 construct: Human recombinant, His6-SENP1 Catalytic Domain; His6 (N); purchased Boston Biochem (Bio-Techne AG) E-700
T1 sequence (Q9P0U3 450-613 limits assumed): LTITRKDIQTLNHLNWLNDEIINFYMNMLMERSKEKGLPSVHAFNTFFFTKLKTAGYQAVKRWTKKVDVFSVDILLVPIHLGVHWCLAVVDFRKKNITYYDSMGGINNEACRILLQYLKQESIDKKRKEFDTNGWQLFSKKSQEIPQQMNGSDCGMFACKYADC
Briefly: Fluorogenic SENP1 assay, SUMO1-AMC substrate. The protocol:
Human recombinant, His6-SENP1 Catalytic Domain (Boston Biochem Cat# E-700, Bio-Techne AG, Zug, Switzerland) was prepared in reaction buffer (50 mM HEPES, 150 mM NaCl, 0.5 mM EDTA, 1 mM DTT, pH 7.5, 0.01% CHAPS). To this solution, a 20 mM or 50 mM inhibitor stock solution in DMSO was added and the mixture was incubated for 15 min at ambient temperature. […] The slope was calculated using Excel and the curve fits were performed using GraphPad Prism7 with a four-parameter least-squares fit. The final reaction conditions contained 0.02 nM SENP1 and 300 nM SUMO1/2 or 3-AMC).

The target in experiment [2] is T1, SENP1. The experiment is described as follows: Fluorogenic SENP1 assay, SUMO2-AMC substrate. The settings on record: n = 2. The protocol:
(§1) Human recombinant, His6-SENP1 Catalytic Domain (Boston Biochem Cat# E-700, Bio-Techne AG, Zug, Switzerland) was prepared in reaction buffer (50 mM HEPES, 150 mM NaCl, 0.5 mM EDTA, 1 mM DTT, pH 7.5, 0.01% CHAPS). To this solution, a 20 mM or 50 mM inhibitor stock solution in DMSO was added and the mixture was incubated for 15 min at ambient temperature. […] The data were analyzed by taking the slope (signal/time) of the linear portion of measurement. The slope was calculated using Excel and the curve fits were performed using GraphPad Prism7 with a four-parameter least-squares fit. The final reaction conditions contained 0.02 nM SENP1 and 300 nM SUMO1/2 or 3-AMC).

Experiment [3] deals with T1, SENP1. Briefly: Fluorogenic SENP1 assay, SUMO3-AMC substrate. The settings on record: n = 2. The protocol: as §1
Experiment [4] concerns the target T2, SENP2 (Homo sapiens, UniProt Q9HC62).
T2 construct: Human recombinant catalytic domain expressed in E. coli; purchased Enzo BML-UW9765; host or cells: E. coli
T2 sequence (Q9HC62 396-560 limits assumed): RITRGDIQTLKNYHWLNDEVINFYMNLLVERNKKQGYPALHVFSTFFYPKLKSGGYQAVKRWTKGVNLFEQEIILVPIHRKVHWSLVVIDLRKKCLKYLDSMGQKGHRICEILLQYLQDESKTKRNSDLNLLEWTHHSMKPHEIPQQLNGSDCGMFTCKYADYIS
The experiment is described as follows: Fluorogenic SENP2 assay, SUMO1-AMC substrate. The note with it: n = 2. The protocol: The IC50 measurements were conducted at Reaction Biology Corporation, Malvern, PA, USA, with two replications using 10 concentrations starting at 200 μM with a three-fold dilution. Curve fits were performed where the enzyme activities at the highest concentration of compounds were less than 65%. UCH-L3 I was used as a control inhibitor. To SENP2 (Enzo Cat# BML-UW9765, Human recombinant catalytic domain expressed in E. coli.) in reaction buffer (50 mM HEPES, 150 mM NaCl, 0.5 mM EDTA, 1 mM DTT, pH 7.5, 0.01% CHAPS) was delivered the compound stock solution by acoustic technology (Echo550; nanoliter range) and subsequently incubated for 15 min at ambient temperature. The substrate SUMO1-AMC (R&D Systems Cat# UL-551-050, Lot# 07613314A, Fluorescence labeled full-length SUMO1 protein) was delivered to the well-plate to initiate the reaction. The enzyme activities were monitored (Ex/Em = 355/460 nm) as a time-course measurement of the increase in fluorescence signal from SUMO1-AMC for 90 min at ambient temperature. The data were analyzed by taking the slope (signal/time) of linear portion of measurement. The slope was calculated using Excel and the curve fits were performed using GraphPad Prism7 with a four-parameter least-squares fit. The final reaction conditions contained 0.015 nM SENP2 and 300 nM SUMO1/2 or 3-AMC.

Experiment [5] deals with T1, SENP1. Briefly: Mode of inhibition study, SENP1 and SUMO1-AMC kinetic measurement. The protocol:
A mode of inhibition study with 11 was performed by kinetic measurement with SENP1 and SUMO1-AMC employing five different substrate concentrations (Figure 4). The IC50 values […] slightly by lowering the SUMO1-AMC substrate concentration from 1000 nM to 62.5 nM, indicating a slight binding preference to the SUMO1-SENP1 complex (Figure 4A).
IC50 measurements were performed with at least two replications using eight concentrations starting at 200 μM and for the fragments at 500 μM with three-fold dilution. Human recombinant, His6-SENP1 Catalytic Domain (Boston Biochem Cat# E-700, Bio-Techne AG, Zug, Switzerland) was prepared in reaction buffer (50 mM HEPES, 150 mM NaCl, 0.5 mM EDTA, 1 mM DTT, pH 7.5, 0.01% CHAPS). To this solution, a 20 mM or 50 mM inhibitor stock solution in DMSO was added and the mixture was incubated for 15 min at ambient temperature. The substrate SUMO1/2 or 3-AMC (SUMO1-AMC; Boston Biochem Cat# UL-551; SUMO2-AMC; Boston Biochem Cat# UL-758; SUMO3-AMC; Boston Biochem Cat# UL-768; Bio-Techne AG, Zug, Switzerland) was delivered to a 96 well-plate to initiate the reaction. The enzyme activities were monitored (Ex/Em = 355/460 nm) as a time-course measurement of the increase in fluorescence signal from SUMO1/2 or 3-AMC for 60 min at 25 °C. The data were analyzed by taking the slope (signal/time) of the linear portion of measurement. The slope was calculated using Excel and the curve fits were performed using GraphPad Prism7 with a four-parameter least-squares fit. The final reaction conditions contained 0.02 nM SENP1 and 300 nM SUMO1/2 or 3-AMC).

Turning to `O=C(Cn1nnc(-c2ccccc2)n1)N1c2ccccc2NC(=O)C12CCCC2` [Compound 11, 1′-[2-(5-Phenyl-2H-1,2,3,4-tetrazol-2-yl)acetyl]-3′,4′-dihydro-1′H-spiro[cyclopentane-1,2′-quinoxalin]-3′-one], the 50% inhibitory concentration (IC50) in experiment [1] (SUMO1-AMC 300 nM, 0.02 nM SENP1, interval in parentheses, read-out: IC50 SENP1) worked out at 8.6 µM; in experiment [1] (screening library samples, SUMO1-AMC, read-out: IC50 SENP1 of hit molecules), 5.1 µM; in experiment [2] it was 43 µM; in experiment [3] it was 59 µM; in experiment [4], 2.3 µM; in experiment [5] (substrate 62.5 nM, read-out: IC50 at SUMO1-AMC 62.5 nM) it was 6.65 µM. The IC50 was 5.82 µM in experiment [5] (substrate 125 nM, read-out: IC50 at SUMO1-AMC 125 nM); 4.72 µM in experiment [5] (substrate 250 nM, read-out: IC50 at SUMO1-AMC 250 nM); 4.04 µM in experiment [5] (substrate 500 nM, read-out: IC50 at SUMO1-AMC 500 nM); 3.15 µM in experiment [5] (substrate 1000 nM, read-out: IC50 at SUMO1-AMC 1000 nM). The “alpha (mixed inhibition model)” value in experiment [5] (global Michaelis-Menten fit) is listed as 0.23. For the same compound, the Ki in experiment [5] (global Michaelis-Menten fit, GraphPad Prism, read-out: KI (mixed inhibition model)) was 10.6 µM; in experiment [5] (global fit, unit inferred, read-out: Ki (Figure 4B)), 10.6 µM.
